Patent publication US20140323501A1, “AMINO-PROPYLENE-GLYCOL DERIVATIVES, PREPARATION METHOD AND PHARMACEUTICAL COMPOSITION AND USE THEREOF” (INSTITUTE OF MATERIA MEDICA, CHINESE ACADEMY OF MEDICAL …, priority 2011, published 2014)

Key:
SD rat heart rate = test: Effect of S1P1 receptor agonists on rat heart rate; type: in vivo; design: heart rate 0: unit not given beside the values; details: for heart rate 0.5 h / heart rate 1 h / heart rate 3 h / heart rate 6 h / heart rate 8 h / heart rate 24 h / heart rate 0 / heart rate pre-administration: intragastric; for heart rate 0: time 0, before administration; for HR delta %: (lowest heart rate postdose − pre-administration)/pre-administration; for heart rate pre-administration: before administration
[1] = test system: SD rat peripheral blood lymphocyte counts; test: Effect of S1P1 receptor agonists on rat vein (peripheral) blood lymphocyte counts; type: in vivo; details: 10 mg/Kg intragastric; for LYM 0 h: before administration; for Δ %: largest decrease of lymphocyte count vs 0 h; for LYM 24 h: 24 h after administration; for compared with 0 h (%) 1 h / compared with 0 h (%) 2 h / compared with 0 h (%) 4 h / compared with 0 h (%) 8 h / compared with 0 h (%) 12 h / compared with 0 h (%) 24 h: lymphocyte count change vs 0 h
Method: 10 mg of drugs were measured and placed in a mortar. After 4 mL of 5‰ CMC-Na were added, homogenous suspension was prepared in the mortar (one drop of twain-80 was added to help dissolving). Dosage: 10 mg/Kg, dose volume: 0.4 mL/100 g, intragastric administration.
Every medicated group was assigned three rats.
After the experimental animals stable in the clean environment for 24 h, 10 μL of blood was withdrawn via tail vein and diluted into 2 mL of diluents quickly. […] Then the prepared drugs were administered intragastrically to the animals. […] The animals were killed after 24 h.

[2] = test system: lymphocyte proliferation / cytotoxic T lymphocytes; details: MLR and CTL; background, Fujita et al.; cited from earlier work
[3] = Table 2, 0.5 h after administration
[4] = Table 2, 1 h after administration
[5] = Table 2, 3 h after administration
[6] = Table 2, 6 h after administration
[7] = Table 2, 8 h after administration
[8] = Table 2, 24 h after administration
[9] = Table 1, 1 h after administration
[10] = Table 1, 2 h after administration
[11] = Table 1, 4 h after administration
[12] = Table 1, 8 h after administration
[13] = Table 1, 12 h after administration

Compound | Δ % = the percentage of change of rat heart rate before and after administration (SD rat heart rate; Table 4) | heart rate 0.5 h (SD rat heart rate; Table 4, 0.5 h) | heart rate 1 h (SD rat heart rate; Table 4, 1 h) | heart rate 3 h (SD rat heart rate; Table 4, 3 h) | heart rate 6 h (SD rat heart rate; Table 4, 6 h) | heart rate 8 h (SD rat heart rate; Table 4, 8 h) | heart rate 24 h (SD rat heart rate; Table 4, 24 h) | heart rate 0 (SD rat heart rate; Table 4) | LYM 0 h ([1]; Table 3) | LYM 1 h ([1]; Table 3, 1 h) | LYM 2 h ([1]; Table 3, 2 h) | LYM 4 h ([1]; Table 3, 4 h) | LYM 6 h ([1]; Table 3) | LYM 8 h ([1]; Table 3, 8 h) | LYM 12 h ([1]; Table 3, 12 h) | LYM 23 h ([1]; Table 3) | Δ % ([1]; Table 3) | HR delta % (SD rat heart rate; Table 2) | heart rate 0.5 h (SD rat heart rate; [3]) | heart rate 1 h (SD rat heart rate; [4]) | also measured
NC(CO)(CO)CCc1ccc(Oc2ccc(-c3coc(C4CC4)n3)cc2)cc1 [Syl955] | 21.72% | 373.00 | 384.75 | 338.25 | 335.50 | 351.50 | 353.90 | 428.63 | 7.40 ± 2.18 ×10^9/L | 6.27 ± 0.78 ×10^9/L | 6.87 ± 0.90 ×10^9/L | 6.83 ± 1.26 ×10^9/L | 8.33 ± 2.70 ×10^9/L | 6.53 ± 1.42 ×10^9/L | 2.90 ± 0.95 ×10^9/L | 4.93 ± 1.07 ×10^9/L | 60.81% | – | – | – | –
CCc1nc(-c2ccc(Sc3ccc(CCC(N)(CO)CO)cc3)cc2)co1 [Syl974] | 4.81% | 382.63 | 388.00 | 396.19 | 368.56 | 364.11 | 363.13 | 381.50 | 6.55 ± 0.21 ×10^9/L | 4.63 ± 0.61 ×10^9/L | 5.27 ± 1.27 ×10^9/L | 5.20 ± 0.61 ×10^9/L | 5.77 ± 0.40 ×10^9/L | 4.67 ± 0.61 ×10^9/L | 2.23 ± 0.59 ×10^9/L | 4.47 ± 1.36 ×10^9/L | 65.9% | – | – | – | –
NC(CO)(CO)CC(O)c1ccc(Oc2ccc(-c3coc(C4CC4)n3)cc2)cc1 (centres unmarked) [Syl963] | 4.58% | 388.38 | 378.36 | 377.36 | 366.88 | 362.50 | 369.05 | 395.50 | 6.90 ± 0.95 ×10^9/L | 4.67 ± 1.50 ×10^9/L | 5.07 ± 2.10 ×10^9/L | 6.67 ± 0.81 ×10^9/L | 4.57 ± 1.29 ×10^9/L | 4.13 ± 0.84 ×10^9/L | 4.20 ± 2.52 ×10^9/L | 2.43 ± 0.91 ×10^9/L | 64.73% | – | – | – | –
CC(C)c1nc(-c2ccc(Oc3ccc(C(O)CC(N)(CO)CO)cc3)cc2)co1 (centres unmarked) [Syl962] | 13.58% | 397.13 | 374.88 | 358.58 | 343.63 | 337.00 | 331.89 | 390.00 | 8.03 ± 1.15 ×10^9/L | 5.60 ± 0.90 ×10^9/L | 5.83 ± 1.54 ×10^9/L | 6.27 ± 1.42 ×10^9/L | 3.63 ± 0.38 ×10^9/L | 2.67 ± 0.67 ×10^9/L | 3.10 ± 0.56 ×10^9/L | 2.43 ± 0.59 ×10^9/L | 69.70% | – | – | – | –
CCc1nc(-c2ccc(Oc3ccc(CCC(N)(CO)CO)cc3)cc2)co1 [Syl934] | – | – | – | – | – | – | – | – | – | – | – | – | – | – | – | – | – | 2.4% | 376.00 | 369.10 | heart rate 3 h (SD rat heart rate; [5]): 337.86; heart rate 6 h (SD rat heart rate; [6]): 338.09; heart rate 8 h (SD rat heart rate; [7]): 362.55; heart rate 24 h (SD rat heart rate; [8]): 365.89; heart rate pre-administration (SD rat heart rate; Table 2): 346.00; LYM 0 h ([1]; Table 1): 4.17 ± 0.40 × 10^9/L; LYM 1 h [1, 9]: 3.60 ± 0.69 × 10^9/L; LYM 2 h [1, 10]: 2.47 ± 0.23 × 10^9/L; LYM 4 h [1, 11]: 2.87 ± 0.55 × 10^9/L; LYM 8 h [1, 12]: 1.83 ± 0.68 × 10^9/L; LYM 12 h [1, 13]: 1.17 ± 0.49 × 10^9/L; LYM 24 h ([1]; Table 1): 1.33 ± 0.32 × 10^9/L; compared with 0 h (%) 1 h ([1]; Table 1, 1 h): 13.60%; compared with 0 h (%) 2 h ([1]; Table 1, 2 h): 40.80%; compared with 0 h (%) 4 h ([1]; Table 1, 4 h): 31.20%; compared with 0 h (%) 8 h ([1]; Table 1, 8 h): 56.00%; compared with 0 h (%) 12 h ([1]; Table 1, 12 h): 72.00%; compared with 0 h (%) 24 h ([1]; Table 1): 68.00%
CCCCCCC(=O)CCCCCC/C=C/C[C@@H](O)[C@H](O)[C@@](N)(CO)C(=O)O [ISP-I, myriocin] | – | – | – | – | – | – | – | – | – | – | – | – | – | – | – | – | – | – | – | – | activity relative to cyclosporine [2]: 10 fold
CCCc1nc(-c2ccc(Oc3ccc(C(O)CC(N)(CO)CO)cc3)cc2)co1 (centres unmarked) [Syl961] | 11.64% | 382.56 | 364.33 | 379.45 | 344.36 | 363.08 | 363.27 | 389.75 | 7.90 ± 2.46 ×10^9/L | 8.57 ± 2.55 ×10^9/L | 6.40 ± 0.98 ×10^9/L | 6.33 ± 2.25 ×10^9/L | 5.83 ± 1.88 ×10^9/L | 3.93 ± 1.78 ×10^9/L | 3.67 ± 1.68 ×10^9/L | 2.63 ± 0.31 ×10^9/L | 66.67% | – | – | – | –
CCCCc1ccc(Oc2ccc(CCC(N)(CO)CO)cc2)cc1 [Syl926] | – | – | – | – | – | – | – | – | – | – | – | – | – | – | – | – | – | 9.60% | 361.91 | 346.80 | heart rate 3 h (SD rat heart rate; [5]): 327.09; heart rate 6 h (SD rat heart rate; [6]): 340.82; heart rate 8 h (SD rat heart rate; [7]): 318.55; heart rate 24 h (SD rat heart rate; [8]): 354.80; heart rate pre-administration (SD rat heart rate; Table 2): 352.85; LYM 0 h ([1]; Table 1): 5.17 ± 2.12 × 10^9/L; LYM 1 h [1, 9]: 3.40 ± 0.20 × 10^9/L; LYM 2 h [1, 10]: 2.57 ± 0.84 × 10^9/L; LYM 4 h [1, 11]: 2.33 ± 0.90 × 10^9/L; LYM 8 h [1, 12]: 1.40 ± 0.79 × 10^9/L; LYM 12 h [1, 13]: 1.33 ± 0.42 × 10^9/L; LYM 24 h ([1]; Table 1): 1.37 ± 0.31 × 10^9/L; compared with 0 h (%) 1 h ([1]; Table 1, 1 h): 34.19%; compared with 0 h (%) 2 h ([1]; Table 1, 2 h): 50.32%; compared with 0 h (%) 4 h ([1]; Table 1, 4 h): 54.84%; compared with 0 h (%) 8 h ([1]; Table 1, 8 h): 72.90%; compared with 0 h (%) 12 h ([1]; Table 1, 12 h): 74.19%; compared with 0 h (%) 24 h ([1]; Table 1): 73.55%
CC(C)c1nc(-c2ccc(Oc3ccc(CCC(N)(CO)CO)cc3)cc2)co1 [Syl935] | – | – | – | – | – | – | – | – | – | – | – | – | – | – | – | – | – | 15.90% | 387.18 | 405.20 | heart rate 3 h (SD rat heart rate; [5]): 384.20; heart rate 6 h (SD rat heart rate; [6]): 352.44; heart rate 8 h (SD rat heart rate; [7]): 373.33; heart rate 24 h (SD rat heart rate; [8]): 398.50; heart rate pre-administration (SD rat heart rate; Table 2): 419.00; LYM 0 h ([1]; Table 1): 4.77 ± 0.21 × 10^9/L; LYM 1 h [1, 9]: 3.73 ± 1.23 × 10^9/L; LYM 2 h [1, 10]: 2.70 ± 1.05 × 10^9/L; LYM 4 h [1, 11]: 2.77 ± 0.72 × 10^9/L; LYM 8 h [1, 12]: 2.10 ± 0.36 × 10^9/L; LYM 12 h [1, 13]: 1.17 ± 0.31 × 10^9/L; LYM 24 h ([1]; Table 1): 1.73 ± 0.29 × 10^9/L; compared with 0 h (%) 1 h ([1]; Table 1, 1 h): 21.68%; compared with 0 h (%) 2 h ([1]; Table 1, 2 h): 43.36%; compared with 0 h (%) 4 h ([1]; Table 1, 4 h): 41.96%; compared with 0 h (%) 8 h ([1]; Table 1, 8 h): 55.94%; compared with 0 h (%) 12 h ([1]; Table 1, 12 h): 75.52%; compared with 0 h (%) 24 h ([1]; Table 1): 63.64%
